Assay: xn = mol fraction of the nth substance listed
Settings: 100 kPa

CCCC[n+]1ccn(C)c1.O=S(=O)([O-])C(F)(F)F + CCCC[n+]1ccn(C)c1.F[P-](F)(F)(F)(F)F
viscosity [mPa·s]
Settings | 293.15 K | 298.15 K | 303.15 K | 308.15 K | 313.15 K | 318.15 K | 323.15 K | 328.15 K
x2 = 0 | 90.8 | 76 | – | 51.7 | 42.11 | 35.18 | 30.02 | 26.6
x2 = 0.0005 | 90.9 | 76 | – | 51.8 | – | 35.2 | – | 26.61
x2 = 0.0006 | 90.9 | 76.1 | 63.6 | 51.8 | – | – | – | 26.61
x2 = 0.0007 | 90.9 | – | 63.6 | 51.8 | 42.14 | 35.2 | 30.03 | 26.61
x2 = 0.0009 | 90.9 | 76.1 | 63.7 | 51.8 | – | 35.21 | 30.04 | 26.61
x2 = 0.0018 | 91 | – | 63.7 | 51.8 | 42.17 | – | 30.05 | 26.62
x2 = 0.0061 | – | 76.5 | 64 | 52 | 42.34 | 35.36 | 30.15 | 26.71
x2 = 0.01 | 91.9 | 76.9 | 64.3 | 52.2 | 42.5 | 35.49 | 30.24 | 26.79
x2 = 0.0501 | 96.7 | 80.5 | 67.1 | 54.4 | 44.11 | 36.73 | 31.17 | 27.59
x2 = 0.0806 | 100.4 | – | – | 56.1 | 45.35 | 37.69 | 32.03 | 28.27
x2 = 0.1 | 102.9 | 85.3 | – | 57.1 | 46.2 | 38.32 | 32.53 | 28.7
x2 = 0.15 | – | 90.4 | 74.7 | – | 48.4 | – | 33.86 | –
x2 = 0.1999 | – | 95.8 | 78.8 | – | – | – | 35.27 | –
x2 = 0.3 | 132.1 | 107.5 | 87.8 | 69.7 | 55.5 | – | – | 33.41
x2 = 0.3999 | 149.7 | 120.7 | 97.7 | 77 | 60.9 | 49.6 | 41.49 | 36.06
x2 = 0.5002 | 169.7 | 135.6 | 108.9 | 85.2 | – | 54.1 | 45 | 38.95
x2 = 0.6 | 192.3 | 152.2 | 121.3 | 94.1 | 73.3 | 58.9 | 48.8 | 42.02
x2 = 0.7 | – | 170.9 | 135.1 | 104 | 80.4 | 64.2 | 52.9 | 45.35
x2 = 0.7995 | 247 | 191.8 | 150.3 | 114.8 | – | 70 | 57.4 | 48.9
x2 = 0.8997 | 280 | 215 | 167.5 | 126.9 | 96.7 | – | – | 52.8

CCCC[n+]1ccn(C)c1.F[P-](F)(F)(F)(F)F + CCCC[n+]1ccn(C)c1.O=S(=O)([O-])C(F)(F)F
x1 = 1
Settings | viscosity [mPa·s]
293.15 K | 337
298.15 K | 257
303.15 K | 197.6
308.15 K | 148.3
313.15 K | 112
323.15 K | 71
328.15 K | 59.7

— a compilation of properties of binary mixtures (doi:10.1016/j.molliq.2017.08.019)
